From patent US12029739B2, “SHP2 inhibitor and use thereof” (KANAPH THERAPEUTICS INC., priority 2021, dated 2024)
Where two headings read alike, the source gives them in different places.

Experiments:
SHP2 (full length) = target: T1, SHP2 (full length) (Homo sapiens, UniProt Q06124); test: Phosphatase assay (PTPase assay) with DiFMUP substrate; type: biochemical; details: SHP2 activated with SHP2 activating peptide; DiFMUP 80 μM, 2 hours; fluorescence; read-out: IC50 (PTPase aS say)
T1 construct: SHP2 (full length, diluted to 100 pM final concentration in reaction buffer, BPS bioscience, US); purchased BPS bioscience, US
T1 sequence (Q06124 1-593): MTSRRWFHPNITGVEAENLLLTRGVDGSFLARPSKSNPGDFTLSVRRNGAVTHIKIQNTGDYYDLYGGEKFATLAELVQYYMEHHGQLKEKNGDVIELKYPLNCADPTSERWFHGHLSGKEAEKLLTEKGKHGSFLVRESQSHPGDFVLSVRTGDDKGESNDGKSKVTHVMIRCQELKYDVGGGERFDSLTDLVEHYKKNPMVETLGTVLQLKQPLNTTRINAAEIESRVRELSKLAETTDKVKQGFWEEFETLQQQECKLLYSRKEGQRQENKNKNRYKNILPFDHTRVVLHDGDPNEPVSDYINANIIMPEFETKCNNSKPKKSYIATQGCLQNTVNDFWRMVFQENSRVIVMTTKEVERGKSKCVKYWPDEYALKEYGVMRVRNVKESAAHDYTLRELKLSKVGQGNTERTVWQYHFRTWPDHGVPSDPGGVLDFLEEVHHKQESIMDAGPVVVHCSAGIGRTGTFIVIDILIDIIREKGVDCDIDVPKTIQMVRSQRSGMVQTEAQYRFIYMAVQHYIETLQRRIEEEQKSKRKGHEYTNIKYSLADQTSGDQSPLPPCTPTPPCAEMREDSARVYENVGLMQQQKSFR

[1] = tested on: phospho-ERK in MIA PaCa2 or H358 cells; test: Phospho-ERK assay (AlphaLisa); type: cell-based; details: MIA PaCa2 or H358 cells, compound incubated 1.5 hours, read-out: IC50 (p-ERK)

SMILES	IC50 (SHP2 (full length)) [nM]	IC50 ([1]; 1.5 h) [nM]	IC50 [1] [nM]
CC(C)(O)Cn1cnc2ccc(Sc3cnc(N4CCC5(CC4)Cc4scnc4[C@@H]5N)cn3)c(Cl)c2c1=O [Example 152, 6-[5-[(4R)-4-aminospiro[4,6-dihydrocyclopenta[d]thiazole-5,4′-piperidin]-1′-yl]pyrazin-2-yl]sulfanyl-5-chloro-3-(2-hydroxy-2-methyl-propyl)quinazolin-4-one]	3 to 100	45 to 1500	–
CC1(N)CCN(c2cnc(Sc3ccc4nc[nH]c(=O)c4c3Cl)cn2)CC1 [Example 4, 6-((5-(4-amino-4-methylpiperidin-1-yl)pyrazin-2-yl)thio)-5-chloroquinazolin-4(3H)-one]	3 to 100	45 to 1500	–
C[C@@H]1OCC2(CCN(c3cnc(Sc4ccc5nn(Cc6ccccc6)cc5c4Cl)cn3)CC2)[C@@H]1N [Example 49, (3S,4S)-8-(5-((2-benzyl-4-chloro-2H-indazol-5-yl)thio)pyrazin-2-yl)-3-methyl-2-oxa-8-azaspiro[4.5]decan-4-amine]	3 to 100	> 1500	–
Cn1c(N2CCN(C[C@@H](N)c3ccccc3)CC2)nc(N)c(Sc2cccc(Cl)c2Cl)c1=O [Example 191, (S)-6-amino-2-(4-(2-amino-2-phenylethyl)piperazin-1-yl)-5-((2,3-dichlorophenyl)thio)-3-methylpyrimidin-4(3H)-one]	> 100	> 1500	–
CC1(CN)CCN(c2cnc(Sc3ccc4ncn(Cc5ccccc5)c(=O)c4c3Cl)cn2)CC1 [Example 13, 6-((5-(4-(aminomethyl)-4-methylpiperidin-1-yl)pyrazin-2-yl)thio)-3-benzyl-5-chloroquinazolin-4(3H)-one]	3 to 100	–	45 to 1500
C[C@@H]1OCC2(CCN(c3cnc(Sc4cccc(S(=O)(=O)NCc5ccccc5)c4Cl)cn3)CC2)[C@@H]1N [Example 10, 3-((5-((3S,4S)-4-amino-3-methyl-2-oxa-8-azaspiro[4.5]decan-8-yl)pyrazin-2-yl)thio)-N-benzyl-2-chlorobenzenesulfonamide]	3 to 100	< 45	–
C[C@@H]1OCC2(CCN(c3cnc(Sc4ccc5nc(Cc6ccccc6)[nH]c5c4Cl)cn3)CC2)[C@@H]1N [Example 50, (3S,4S)-8-(5-((2-benzyl-7-chloro-1H-benzo[d]imidazol-6-yl)thio)pyrazin-2-yl)-3-methyl-2-oxa-8-azaspiro[4.5]decan-4-amine]	3 to 100	45 to 1500	–
C[C@@H]1OCC2(CCN(c3cnc(Sc4ccc5ncn(Cc6cncnc6)c(=O)c5c4Cl)cn3)CC2)[C@@H]1N [Example 46, 6-((5-((3S,4S)-4-amino-3-methyl-2-oxa-8-azaspiro[4.5]decan-8-yl)pyrazin-2-yl)thio)-5-chloro-3-(pyrimidin-5-ylmethyl)quinazolin-4(3H)-one]	3 to 100	< 45	–
COCCn1cnc2ccc(Sc3cnc(N4CCC5(CC4)Cc4nc(Cl)sc4[C@@H]5N)cn3)c(Cl)c2c1=O [Example 157, 6-[5-[(6R)-6-amino-2-chloro-spiro[4,6-dihydrocyclopenta[d]thiazole-5,4′-piperidin]-1′-yl]pyrazin-2-yl]sulfanyl-5-chloro-3-(2-methoxyethyl)quinazolin-4-one]	3 to 100	45 to 1500	–
C[C@@H]1OCC2(CCN(c3cnc(Sc4ccc5ncn(Cc6ccnc(Cl)c6)c(=O)c5c4Cl)cn3)CC2)[C@@H]1N [Example 60, 6-((5-((3S,4S)-4-amino-3-methyl-2-oxa-8-azaspiro[4.5]decan-8-yl)pyrazin-2-yl)thio)-5-chloro-3-((2-chloropyridin-4-yl)methyl)quinazolin-4(3H)-one]	< 3	< 45	–

Second part, led by results:

IC50 (SHP2 (full length)) [nM]	IC50 ([1]; 1.5 h) [nM]	SMILES	IC50 [1] [nM]
< 3	< 45	C[C@@H]1OCC2(CCN(c3cnc(Sc4ccc5ncn(CN6CCOCC6)c(=O)c5c4Cl)cn3)CC2)[C@@H]1N [Example 78, 6-((5-((3S,4S)-4-amino-3-methyl-2-oxa-8-azaspiro[4.5]decan-8-yl)pyrazin-2-yl)thio)-5-chloro-3-(morpholinomethyl)quinazolin-4(3H)-one]	–
< 3	< 45	N[C@@H]1c2cccnc2CC12CCN(c1cnc(Sc3ccc4ncn(CCCF)c(=O)c4c3Cl)cn1)CC2 [Example 110]	–
< 3	< 45	C[C@@H]1OCC2(CCN(c3cnc(Sc4ccc5ncn(CC(N)=O)c(=O)c5c4Cl)cn3)CC2)[C@@H]1N [Example 97, 2-(6-((5-((3S,4S)-4-amino-3-methyl-2-oxa-8-azaspiro[4.5]decan-8-yl)pyrazin-2-yl)thio)-5-chloro-4-oxoquinazolin-3(4H)-yl)acetamide]	–
< 3	< 45	C[C@@H]1OCC2(CCN(c3cnc(Sc4ccc5ncn(Cc6cccnc6)c(=O)c5c4Cl)cn3)CC2)[C@@H]1N [Example 20, 6-((5-((3S,4S)-4-amino-3-methyl-2-oxa-8-azospiro[4.5]decan-8-yl)pyrazin-2-yl)thio)-5-chloro-3-(pyridin-3-ylmethyl)quinazolin-4H-one]	–
< 3	< 45	C[C@@H]1OCC2(CCN(c3cnc(Sc4ccc5ncn(CC6CCC(=O)CC6)c(=O)c5c4Cl)cn3)CC2)[C@@H]1N [Example 121]	–
< 3	< 45	COCCn1cnc2ccc(Sc3cnc(N4CCC5(CC4)Cc4ncsc4[C@H]5N)c(CO)n3)c(Cl)c2c1=O [Example 169, (S)-6-((5-(6-amino-4,6-dihydrospiro[yclopenta[d]thiazole-5,4′-piperidin]-1′-yl)-6-(hydroxymethyl)pyrazin-2-yl)thio)-5-chloro-3-(2-methoxyethyl)quinazolin-4(3H)-one]	–
< 3	45 to 1500	C[C@@H]1OCC2(CCN(c3cnc(Sc4ccc5ncn(CC(=O)N6CCCCC6)c(=O)c5c4Cl)cn3)CC2)[C@@H]1N [Example 95, 6-((5-((3S,4S)-4-amino-3-methyl-2-oxa-8-azaspiro[4.5]decan-8-yl)pyrazin-2-yl)thio)-5-chloro-3-(2-oxo-(2-piperidin-1-yl]ethyl)quinazolin-4(3H)-one]	–
< 3	< 45	COCCn1cnc2ccc(Sc3cnc(N4CCC5(CC4)Cc4ncsc4[C@H]5N)c(C(N)=O)n3)c(Cl)c2c1=O [Example 171, (S)-3-(6-amino-4,6-dihydrospiro[cyclopenta[d]thiazole-5,4′-piperidin]-1′-yl)-6-((5-chloro-3-(2-methoxyethyl)-4-oxo-3,4-dihydroquinazolin-6-yl)thio)pyrazine-2-carboxamide]	–
< 3	< 45	C[C@@H]1OCC2(CCN(c3cnc(Sc4ccc5ncn(CC6CCOC6)c(=O)c5c4Cl)cn3)CC2)[C@@H]1N (stereo partly drawn) [Example 61, 6-((5-((3S,4S)-4-amino-3-methyl-2-oxa-8-azaspiro[4.5]decan-8-yl)pyrazin-2-yl)thio)-5-chloro-3-((tetrahydrofuran-3-yl)methyl)quinazolin-4(3H)-one]	–
< 3	< 45	C[C@@H]1OCC2(CCN(c3cnc(Sc4ccc5ncn(Cc6ccnc(C#N)c6)c(=O)c5c4Cl)cn3)CC2)[C@@H]1N [Example 71, 4-((6-((5-((3S,4S)-4-amino-3-methyl-2-oxa-8-azaspiro[4.5]decan-8-yl)pyrazin-2-yl)thio)-5-chloro-4-oxoquinazolin-3(4H)-yl)methyl)picolinonitrile]	–
< 3	< 45	COCCn1cnc2ccc(Sc3cnc(N4CCC5(CC4)CO[C@@H](C)[C@H]5N)c(CO)n3)c(Cl)c2c1=O [Example 153, 6-[5-[(3S,4S)-4-amino-3-methyl-2-oxa-8-azaspiro[4.5]decan-8-yl]-6-(hydroxymethyl)pyrazin-2-yl]sulfanyl-5-chloro-3-(2-methoxyethyl)quinazolin-4-one]	–
< 3	< 45	CC(C)(O)Cn1cnc2ccc(Sc3ncc(N4CCC5(CC4)Cc4scnc4[C@H]5N)nc3N)c(Cl)c2c1=O [Example 165, (S)-6-((3-amino-5-(4-amino-4,6-dihydrospiro[cyclopenta[d]thiazole-5,4′-piperidin]-1′-yl)pyrazin-2-yl)thio)-5-chloro-3-(2-hydroxy-2-methylpropyl)quinazolin-4(3H)-one]	–
< 3	< 45	C[C@@H]1OCC2(CCN(c3cnc(Sc4ccc5ncn(CC6(O)CCOCC6)c(=O)c5c4Cl)cn3)CC2)[C@@H]1N [Example 83, 6-((5-((3S,4S)-4-amino-3-methyl-2-oxa-8-azaspiro[4.5]decan-8-yl)pyrazin-2-yl)thio)-5-chloro-3-((4-hydroxytetrahydro-2H-pyran-4-yl)methyl)quinazolin-4(3H)-one]	–
< 3	< 45	COC(C)Cn1cnc2ccc(Sc3cnc(N4CCC5(CC4)Cc4ncccc4[C@H]5N)cn3)c(Cl)c2c1=O (stereo partly drawn) [Example 142, 6-((5-((S)-5-amino-5,7-dihydrospiro[yclopenta[b]pyridine-6,4′-piperidin]-1′-yl)pyrazin-2-yl)thio)-5-chloro-3-(2-methoxypropyl)quinazolin-4(3H)-one]	–
